Test results published in US20260373102A1, “INJECTABLE GUANFACINE FORMULATIONS AND METHODS” (Cumberland Pharmaceuticals Inc., priority 2023, published 2026).
Where a name gives a salt, the structure may show the parent alone. Read-outs that look alike come from different tables or passages of the source.

Assays:
Assay type in all cases: physicochemical
[1] = Chemical stability of Guanfacine solutions in WFI at room temperature (vials, IV bags; HPLC); details: for degraded at 72 h: 0.5 mg/mL
Experimental: Guanfacine HCl powder (Laxai Avanti, Lot CPL-01-2013-014-033) was dissolved in WFI at a concentration of 0.5 mg/mL, passed through a 0.22 μm PVDF membrane in a biosafety cabinet, and then filled into 20 mL glass vials (particle free), or 150 ml polyolefin IV bags. The vials and IV bags were stored at room temperature conditions. The Guanfacine solutions in the vials and IV bags were at pH 5.7 and 5.0, respectively. After 72 hours at room temperature the Guanfacine solution in the vials formed a degradation product at 0.23% and the Guanfacine solution in the IV bags formed a degradation product at 0.16%.
Additionally, Guanfacine HCl (Laxai Avanti, Lot CPL-01-2013-014-033) was dissolved in WFI to a final concentration of 1.14 mg/mL, pH 4.5, passed through a 0.22 μm PVDF membrane in a biosafety cabinet, and then filled into glass vials. The glass vials were stored at room temperature conditions.

[2] = Guanfacine solubility at pH 7.0 and 8.0; details: for solubility at 1 h: sodium phosphate buffer, aqueous buffer, 0.22 μm filtered, HPLC, read-out: concentration of filtered sample (solubility)
Experimental: Stock solutions of acetic acid and sodium acetate were used for making another pH 4.0 sample and a pH 5.0 sample. For the pH 4.0 sample, 920 μL of acetic acid was added to 80 μL of sodium acetate and then the final solution was prepared as described above to achieve a 5 mM buffer concentration. For the pH 5.0 sample, 700 μL of acetic acid was added to 1,300 μL of sodium acetate and 1.0 mLs of that buffer stock solution was added to make a final buffer concentration of 20 mM. With the exception of the buffer concentration, the pH 5.0 sample solution was completed as described above. Another sample solution was also made at 20 mM sodium acetate, pH 5.0, except the solvent was sparged with nitrogen and the head space of the vial was purged with nitrogen just prior to stoppering in order to remove air from the sample. For the pH 6.0 sample, a stock solution with 1,840 μL of 0.5 M sodium phosphate monobasic and 160 μL of 0.5 M sodium phosphate dibasic was made that was then diluted to 10 mM sodium phosphate by adding 1.0 mL to a final of 50 grams of solution. The solution was then completed as described previously.
Follow up testing was done to confirm that Guanfacine solubility was lower at pH 7.0 and 8.0 compared to the other samples made at pH levels≤6.0. For the pH 7.0 sample, a stock solution of 0.192 mL of 0.5 M sodium phosphate monobasic and 0.208 mLs of 0.5 M sodium phosphate dibasic was added to a glass tube followed by ~8.0 mLs of WFI and ~11.5 mg of Guanfacine-HCl. The solution was then adjusted to pH 7.0 with a solution of 0.2 N NaOH and adjusted to a volume of 10 mLs with WFI. For the pH 8.0 sample, a stock solution of 0.028 mL of 0.5 M sodium phosphate monobasic and 0.372 mLs of 0.5 M sodium phosphate dibasic was added to a glass tube followed by ~8.0 mLs of WFI and 11.48 mg of Guanfacine-HCl. The solution was then adjusted to pH 8.0 with a solution of 0.2 N NaOH and adjusted to a volume of 10 mLs with WFI. […] After 1 hour of sonication both samples were then filtered through a 0.22 μm PVDF filter and analyzed by HPLC. The concentration of the filtered pH 7.0 sample was ~0.35 mg/mL and the concentration of the filtered pH 8.0 sample was ~0.12 mg/mL. Therefore Guanfacine-HCl was less soluble at pH 7.0 and 8.0 compared to pH levels of 6.0 and lower.

[3] = Compatibility of Guanfacine with Ropivacaine (appearance, pH, particulate matter); details: for Particulate Matter 10 μm / Particulate Matter 25 μm: Guanfacine only in WFI, filtered, before mixing; for concentration of Guanfacine freebase in the WFI control: HPLC
Experimental: The compatibility of 1.0 mg/mL and 0.1 mg/mL solutions of Guanfacine diluted into 30 mL Ropivacaine (USP 5 mg/mL Hospira, Lot-48-031-DK) was tested. A 0.1 and 1.0 mg/mL solution of Guanfacine free base in water for injection (WFI) was prepared. For every 1.148 mg of Guanfacine-HCl there is 1 mg of Guanfacine free base. For the 0.1 mg/mL solution, 57.4 mg of Guanfacine-HCl (lot #CPL-01-2013-014-033 Laxai Avanti) was dissolved in 400 mL of WFI (Hospira 1000 mL Bag, Lot 51-114-JT). Once fully dissolved, the solution was transferred to a 500 mL volumetric flask and q.s. to volume. For the 1.0 mg/mL solution, 114.8 mg of Guanfacine-HCl was dissolved in 80 mL of WFI. Once fully dissolved, the solution was transferred to a 100 mL volumetric flask and q.s. to volume.
Two glass vials were rinsed with WFI three times and emptied. The vials were rinsed with filtered Guanfacine solution three times, 5 mLs at a time. Approximately 35 mLs of the Guanfacine solutions were filtered into the vials using a Millex GV Sterile PVDF 0.22 μm syringe filter. The particulate content in the filtered Guanfacine solutions was determined prior to adding to the Ropivacaine vial using an APSS Liquiliaz particle counter. 1.2 mLs of filtered Guanfacine solutions at 0.1 or 1.0 mg/mL were injected into three separate vials containing Ropivacaine for each concentration (1:25 dilution of Guanfacine:Ropivacaine). The concentration of Guanfacine freebase in the WFI control was 0.10 mg/mL and 1.05 mg/mL, as determined by HPLC. The compatibility solutions were not able to be analyzed by the HPLC assay for Guanfacine because Guanfacine and Ropivacaine have very similar elution times and only the Ropivacaine peak could be seen on the chromatogram.
The appearance, pH, and particulate content for one vial at each concentration at time zero, 4 to 6 hours, and 24 hours was assessed and the results are reported in Table 1, below.

For N=C(N)NC(=O)Cc1c(Cl)cccc1Cl [Guanfacine-HCl, N-amidino-2-(2,6-dichlorophenyl) acetamide monohydrochloride], the “Area % of peak 2” value ([1]; 1.14 mg/mL Guanfacine-HCl in WFI, pH 4.5, glass vials, 1 week, RRT 1.44) was 0.02%, the “Area % of peak 3 (degradation product)” value ([1]; 1.14 mg/mL Guanfacine-HCl in WFI, pH 4.5, glass vials, 1 week, RRT 8.72, 10080 min) was 0.26% and the “Area % of guanfacine peak (peak 1)” value ([1]; 1.14 mg/mL Guanfacine-HCl in WFI, pH 4.5, glass vials, time zero, RRT 1) was 99.98%. For the same compound, the “Area % of peak 2” value ([1]; 1.14 mg/mL Guanfacine-HCl in WFI, pH 4.5, glass vials, time zero, RRT 1.45) was 0.02%, the remaining at 168 h ([1]; water, 1.14 mg/mL Guanfacine-HCl in WFI, pH 4.5, glass vials, 1 week, RRT 1, read-out: Area % of guanfacine peak (peak 1)) was 99.7% and the “solubility compared to pH levels of 6.0 and lower” value ([2]; pH 7.0 and 8.0) was “less soluble”. The appearance of solution ([2]; pH 7.0 and pH 8.0 samples (both), after 1 hour of sonication) was “cloudy and contained precipitate”, the solubility at 1 h ([2]; pH 7.0, sodium phosphate, after 1 hour of sonication) was ~350 µg/mL and the solubility at 1 h ([2]; pH 8.0, sodium phosphate, after 1 hour of sonication) was ~120 µg/mL.
With N=C(N)NC(=O)Cc1c(Cl)cccc1Cl [Guanfacine] the “compatibility with Ropivacaine” value ([3]; 1.0 mg/mL in WFI, 1:25 dilution of Guanfacine to Ropivacaine) was “compatible with Ropivacaine”, the “Particulate Matter 10 μm” value ([3]; 0.1 mg/mL) was 0 Particles per mL and the “Particulate Matter 25 μm” value ([3]; 0.1 mg/mL) was 0 Particles per mL. The “Particulate Matter 10 μm” value ([3]; 1 mg/mL) was 6 Particles per mL, the “Particulate Matter 25 μm” value ([3]; 1 mg/mL) was 0 Particles per mL and the “concentration of Guanfacine freebase in the WFI control” value ([3]; nominal 0.1 mg/mL) was 100 µg/mL. For the same compound, the “concentration of Guanfacine freebase in the WFI control” value ([3]; nominal 1.0 mg/mL) was 1050 µg/mL, the “Area % of guanfacine peak (peak 1)” value ([1]; 0.5 mg/mL in WFI in IV bags, pH 5.0, time zero, RRT 1.00) was 99.94% and the “Area % of peak 2 (degradation product)” value ([1]; 0.5 mg/mL in WFI in IV bags, pH 5.0, time zero, RRT 8.77) was 0.06%. For the same compound, the “Area % of peak 2” value ([1]; 0.5 mg/mL in WFI in vials, pH 5.7, 24 hours, RRT 1.31) was 0.02%, the “Area % of peak 2” value ([1]; 0.5 mg/mL in WFI in vials, pH 5.7, 72 hours, RRT 1.32) was 0.01% and the “Area % of peak 3” value ([1]; 0.5 mg/mL in WFI in vials, pH 5.7, 72 hours, RRT 4.31) was 0.01%. For the same compound, the “Area % of guanfacine peak (peak 1)” value ([1]; 0.5 mg/mL in WFI in vials, pH 5.7, time zero, RRT 1.00) was 99.94%, the “Area % of peak 2” value ([1]; 0.5 mg/mL in WFI in vials, pH 5.7, time zero, RRT 1.31) was 0.01% and the “Area % of peak 4 (degradation product)” value ([1]; 0.5 mg/mL in WFI in vials, pH 5.7, time zero, RRT 8.58) was 0.05%. For the same compound, the remaining at 24 h ([1]; water, 0.5 mg/mL in WFI in IV bags, pH 5.0, 24 hours, RRT 1.00, read-out: Area % of guanfacine peak (peak 1)) was 99.8%, the degraded at 24 h ([1]; water, 0.5 mg/mL in WFI in IV bags, pH 5.0, 24 hours, RRT 8.79, read-out: Area % of peak 2 (degradation product)) was 0.15% and the remaining at 72 h ([1]; water, 0.5 mg/mL in WFI in IV bags, pH 5.0, 72 hours, RRT 1.00, read-out: Area % of guanfacine peak (peak 1)) was 99.8%. It also gave a remaining at 24 h ([1]; water, 0.5 mg/mL in WFI in vials, pH 5.7, 24 hours, RRT 1.00, read-out: Area % of guanfacine peak (peak 1)) of 99.9%, a degraded at 24 h ([1]; water, 0.5 mg/mL in WFI in vials, pH 5.7, 24 hours, RRT 8.58, read-out: Area % of peak 4 (degradation product)) of 0.1% and a remaining at 72 h ([1]; water, 0.5 mg/mL in WFI in vials, pH 5.7, 72 hours, RRT 1.00, read-out: Area % of guanfacine peak (peak 1)) of 99.8%. It also gave a degraded at 72 h ([1]; water, IV bags, pH 5.0, 72 hours at room temperature, read-out: degradation product formed) of 0.16%, a degraded at 168 h ([1]; water, glass vials, pH 4.5, one week at room temperature, 1.14 mg/mL, read-out: degradation product formed) of 0.26% and a degraded at 72 h ([1]; water, vials, pH 5.7, 72 hours at room temperature, read-out: degradation product formed) of 0.23%. The “dissolution at 1 mg/mL” value ([2]; pH 7.0, 1 mg/mL) was “did not completely dissolve”.
